# Test results reported in publication PMC6733874, “Zebrafish behavioural profiling identifies GABA and serotonin receptor ligands related to sedation and paradoxical excitation” (Nature Communications, 2019).
# Entries after “also recorded” stand apart in the source; their conditions may differ. Like-named read-outs stand apart in the source and are kept apart here.
# Columns and labels:
# [1] = tested on: zebrafish; format: in vivo; conditions: for rescue of behavioral phenotypes by pretreatment with the GABAAR antagonist PTX: violet light and eASR phenotypes, in words
# [2] = tested on: human GABAARs (α1β2 and α1β2γ2); format: cell-based
# Description: To determine if these compounds targeted human GABAARs, we tested them in a fluorescent imaging plate reader (FLIPR) assay on HEK293 cells transfected with α1β2 and α1β2γ2 human GABAAR subtypes. […]. […] While some of the compounds appeared to function in this assay as negative allosteric modulators (NAMs), reductions in fluorescence were likely due to toxicity-induced cell loss (Fig. 2f, Supplementary Table 5).
# We used the FLIPR system (Molecular Devices) to quantify GABA-evoked activity of human GABAARs. We chose a membrane potential dye (Molecular Devices) to measure changes in membrane potentials and stably transfected HEK293 cells that expressed α1, β2 and γ2. Since we observed an increase in GABA-evoked responses when transfected with γ2 transiently, we describe the cells as having a low level of γ-subunit expression, indicating heterogeneity of GABAAR compositions in the cell (α1β2 or α1β2γ2). To assay for direct agonists, fluorescence was subtracted pre- and post compound addition. To assay for PAMs, cells were treated with compound at 20 uM and then with 5 uM GABA.
# [3] = tested on: zebrafish; format: in vivo
# Procedure: (§1) Behavioral assays for pERK. Animals were treated with DMSO or drug for one hour then exposed to a low-volume acoustic stimulus every 10 seconds for 10 minutes. Optovin-treated animals were stimulated with violet light for one second every 10 seconds for 10 minutes. Videos were recorded to measure response to the stimulus and quantified by motion index (MI). […]
# [4] = tested on: zebrafish; test: Optovin-response suppression assay (pain-related); conditions: in words; relative to concentrations that caused eASRs
# Description: To determine if any of the hit compounds may be analgesic, we used optovin-induced motor activity as a potential analgesia-related assay.
# [5] = tested on: zebrafish; test: Cortisol detection assay; format: in vivo; conditions: 7-day old larvae treated 1 h; in words
# Procedure: Cortisol levels were measured in zebrafish. Briefly, 15, 7-day old larvae were treated with the indicated compounds for 1 h. Larvae were anesthetized in ice-cold egg water and then snap-froze in an ethanol/dry ice bath. Larvae were then homogenized in 100 μL of water. Cortisol was extracted from the homogenate with 1 mL of ethyl acetate, the resulting supernatant was collected and the solvent allowed to evaporate. Cortisol was dissolved in 0.2% bovine serum albumin (A7030, Sigma) and frozen at −20 °C. For cortisol ELISA experiments, 96-well plates (VWR International) were treated with cortisol antibody (P01-92-94M-P, EastCoast Bio; […] in PBS) for 16 h at 4 °C, washed, and blocked with 0.1% BSA in PBS. Cortisol samples and cortisol-HRP (P91-92-91H, EastCoast Bio) were incubated at room temperature for 2 h and washed extensively with PBS containing 0.05% Tween-20 (Invitrogen). Detection of HRP was performed using tetramethylbenzidine (TMB: 22166-1, Biomol) and Tetrabutylammonium borohydride (TBABH: 230170-10 G, Sigma). Reaction was stopped using 1 M H2SO4. Absorbance was read at 450 nm in an ELISA plate reader (SpectraMax MS, Molecular Devices).
# [6] = tested on: zebrafish; test: Viability of anesthetic treated animals; format: in vivo; conditions: for alive/total 10 min: 10 minutes post treatment; for alive/total 1 hour: 1 hour post treatment; for alive/total 5 hours: 5 hours post treatment
# Procedure: as §1, with “(MI). Animals were immediately” for “(MI).”
# High speed imaging. Digital video was recorded at 500-1000 frames per second using an Integrated Design Tools NX5-S1 digital camera. Assay duration was 500-1000 ms. Low amplitude tap stimuli was delivered as described above. Videos and still images were assembled using Fiji (imageJ) and […]
# RNAscope. Zebrafish (6 dpf) were fixed using 10% normal buffered formaldehyde overnight at 4 °C, dehydrated in 100% methanol and stored at -20 °C until the assay was performed. Fluorescent in situ hybridization was performed using the RNAScope kit (Advanced Cell Diagnostics)4 with the following modifications: target retrieval was performed using 150 mM Tris pH 9.5 for 15 minutes at 70 °C, washes were performed using 0.2x SSCT (0.01% Tween-20, […], 0.3mM TriNa-citrate, pH7), samples were stored overnight after probe hybridization and 2x 5 minute washes in 5x SSC ([…], pH7) at room temperature before amplification and detection steps were performed the following day.
# Viability. Animals were scored manually to determine viability after anesthetic treatments. 100 animals were scored per condition at 10 minutes, 1 hour and 5 hours post treatment. Strong heart rate was observed under a dissecting scope (Leica M-80) for our viability score. […]
# rdkit function FingerprintMols package written for python. Tanimoto similarity function was used with a […]
# [7] = larvae, low-volume acoustic stimulus
# [8] = compound at 20 uM then 5 uM GABA, DMSO = 1
# [9] = compound at 20 uM then 5 uM GABA, Positive/Negative
compound,measurement,setting,value
COc1ccc2[nH]c(-c3ccccc3)c(CCN(C)C)c2c1 [BGC 20-761],"enhanced acoustic startle response (eASR) phenotype, in words",[1]; [7],reproducibly caused eASRs in vivo
same,rescue of behavioral phenotypes by pretreatment with the GABAAR antagonist PTX,[1],partially rescued
same,Phenoscore,"[1]; zebrafish, in vivo",0.74
same,Ave Norm FLIPR Score,[2]; [8],1.189
same,"GABAAR PAM activity in FLIPR, in words",[2]; in the presence of GABA,PAM activity was not observed
same,pERK labeling (neuronal activity),[3]; in words,reduced neuronal activity throughout most of the brain and increased activity in the caudal hindbrain neuron cluster
same,optovin response (optovin-induced motor activity),[4],blocked the optovin response
"C[C@]12CC[C@H]3[C@@H](CCC4=CC(=O)CC[C@@]43C)[C@@H]1CC[C@@H]2C(=O)CO [DOC, 11-deoxycorticosterone]","enhanced acoustic startle response (eASR) phenotype, in words",[1]; [7],most potent compounds tested
same,Ave Norm FLIPR Score,[2]; [8],-4.308
CCOC(=O)c1cccn1[C@H](C)c1ccccc1 [carboetomidate],phenoscore category,[1]; average phenoscore at highest scoring treatment,intermediate (intermediate phenoscores (0.51 < x < 0.71))
same,"enhanced acoustic startle response (eASR) phenotype, in words",[1]; [7],immobilized zebrafish and caused eASRs
same,cortisol levels,[5],did not
CCCCn1c2ccccc2n2c(C(=O)OCC)c(C)nc12 [compound 5658603],rescue of behavioral phenotypes by pretreatment with the GABAAR antagonist PTX,[1],rescued
same,Ave Norm FLIPR Score,[2]; [8],55.24
same,FLIPR Results,[2]; [9],Positive
same,optovin response (optovin-induced motor activity),[4],did not suppress the optovin response
Cc1ccc(Cl)cc1NC(=O)COc1c(C)cccc1C [compound 5942595],rescue of behavioral phenotypes by pretreatment with the GABAAR antagonist PTX,[1],partially rescued
same,Ave Norm FLIPR Score,[2]; [8],84.91
same,FLIPR Results,[2]; [9],Positive
same,"GABAAR PAM activity in FLIPR, in words",[2]; in the presence of GABA,potentiated GABAARs significantly greater than positive controls; also recorded: significantly greater than the positive controls
same,optovin response (optovin-induced motor activity),[4],blocked optovin-induced motor activity
CCOC(=O)c1c(C)nc(-c2ccccc2)nc1NC(=O)Cc1ccccc1 [compound 5951201],cortisol levels,[5],None of these compounds reduced cortisol levels
COc1ccccc1N1CCN(C(=O)c2ccc(C(=O)c3c(C)cc(C)cc3C)cc2)CC1 [compound 6013263],rescue of behavioral phenotypes by pretreatment with the GABAAR antagonist PTX,[1],partially rescued
same,Ave Norm FLIPR Score,[2]; [8],1.035
COc1ccc(S(=O)(=O)NC2CCCC2)cc1Br [compound 6028165],rescue of behavioral phenotypes by pretreatment with the GABAAR antagonist PTX,[1],partially rescued
same,Ave Norm FLIPR Score,[2]; [8],28.76
same,FLIPR Results,[2]; [9],Positive
same,optovin response (optovin-induced motor activity),[4],only reduced the optovin response at concentrations that also reduced eASRs
COc1ccc(OC)c(NS(=O)(=O)c2ccc(OC)c(Br)c2)c1 [compound 6029941],rescue of behavioral phenotypes by pretreatment with the GABAAR antagonist PTX,[1],partially rescued
same,Ave Norm FLIPR Score,[2]; [8],14.01
same,FLIPR Results,[2]; [9],Positive
same,cortisol levels,[5],None of these compounds reduced cortisol levels
CCOc1ccccc1NS(=O)(=O)c1ccc(OC)c(Br)c1 [compound 6030006],rescue of behavioral phenotypes by pretreatment with the GABAAR antagonist PTX,[1],partially rescued
same,Ave Norm FLIPR Score,[2]; [8],3.046
CC(C)c1ccc(NS(=O)(=O)c2ccc3c(c2)OCCO3)cc1 [compound 6212662],Ave Norm FLIPR Score,[2]; [8],-5.179
same,optovin response (optovin-induced motor activity),[4],only reduced the optovin response at concentrations that also reduced eASRs
O=S(=O)(Nc1cccc(Br)c1)c1ccc2c(c1)OCCO2 [compound 6225936],Ave Norm FLIPR Score,[2]; [8],-14.7
same,cortisol levels,[5],None of these compounds reduced cortisol levels
same,optovin response (optovin-induced motor activity),[4],only reduced the optovin response at concentrations that also reduced eASRs
CC(C)CC(=O)NC(S)=NCc1ccccc1 [compound 6993015],Ave Norm FLIPR Score,[2]; [8],23.93
same,FLIPR Results,[2]; [9],Positive
CCc1cc2c(=O)c(-c3ccccc3Cl)coc2cc1O [compound 7014338],Ave Norm FLIPR Score,[2]; [8],-6.27
O=C(Cc1ccc(Cl)cc1)Nc1cccc(C(=O)c2ccccc2)c1 [compound 7100598],Ave Norm FLIPR Score,[2]; [8],7.736
same,FLIPR Results,[2]; [9],Positive
Nc1ccc(OC(F)(F)F)cc1C(=O)c1ccccc1 [compound 7113584],Ave Norm FLIPR Score,[2]; [8],-2.455
CCOC(=O)c1c(C)n(Cc2ccco2)c2ccc(OC)cc12 [compound 7114005],Ave Norm FLIPR Score,[2]; [8],15.23
same,FLIPR Results,[2]; [9],Positive
same,optovin response (optovin-induced motor activity),[4],blocked optovin-induced motor activity
Cc1cc(C)n2c(SCc3ccc(C(=O)c4ccccc4)cc3)nnc2n1 [compound 7166683],Ave Norm FLIPR Score,[2]; [8],-1.302
Cc1cccc(OCCn2c(NC(=O)c3ccco3)nc3ccccc32)c1 [compound 7273455],Ave Norm FLIPR Score,[2]; [8],7.892
same,FLIPR Results,[2]; [9],Positive
CCOC(=O)c1c(NC(=O)C2CCCC2)sc2c1CCCC2 [compound 7282929],Ave Norm FLIPR Score,[2]; [8],17.15
same,FLIPR Results,[2]; [9],Positive
CN1C(=O)CN=C(c2ccccc2)c2cc(Cl)ccc21 [diazepam],"enhanced acoustic startle response (eASR) phenotype, in words","[1]; zebrafish, in vivo",produced eASRs that were relatively weak and inconsistent; also recorded: produced intermediate eASR phenotypes
same,Ave Norm FLIPR Score,[2],-10.9
Cc1cc(/C=C2/SC(=S)NC2=O)c(C)n1-c1cccnc1 [optovin],pERK labeling (neuronal activity),[3]; in words,neuronal activity increased in many brain regions including the telencephalon and optic tectum but not in the hindbrain
CC(=O)[C@H]1CC[C@H]2[C@@H]3CCC4=CC(=O)CC[C@]4(C)[C@H]3CC[C@]12C [progesterone],"enhanced acoustic startle response (eASR) phenotype, in words",[1]; [7],most potent compounds tested
same,Ave Norm FLIPR Score,[2]; [8],17.8
same,FLIPR Results,[2]; [9],Positive
CC(C)c1cccc(C(C)C)c1O [propofol],"enhanced acoustic startle response (eASR) phenotype, in words","[1]; zebrafish, in vivo",caused enhanced acoustic startle responses
same,Ave Norm FLIPR Score,[2],34.52
same,FLIPR Results,[2],Positive
same,"GABAAR PAM activity in FLIPR, in words",[2],increased fluorescence in the presence of GABA
same,alive/total 10 min,[6]; 3 µM,100/100
same,alive/total 1 hour,[6]; 3 µM,100/100
same,alive/total 5 hours,[6]; 3 µM,100/100
same,alive/total 10 min,[6]; 6 µM,100/100
same,alive/total 1 hour,[6]; 6 µM,100/100
same,alive/total 5 hours,[6]; 6 µM,100/100
same,alive/total 10 min,[6]; 12 µM,100/100
same,alive/total 1 hour,[6]; 12 µM,100/100
same,alive/total 5 hours,[6]; 12 µM,99/100
same,toxicity at the concentrations that caused eASRs,"[6]; zebrafish, in vivo",Neither etomidate or propofol was toxic
same,pERK labeling (neuronal activity),"[3]; zebrafish, in vivo",broadly reduced
CCCC(C)C1(CC)C(=O)NC(=S)NC1=O (stereo not shown) [thiopental],FLIPR Results,[2]; [9],Positive
CCCCNc1c(C(=O)OCC)c(C)nc2c1cnn2CC [tracazolate],Ave Norm FLIPR Score,[2]; [8],50.14
same,FLIPR Results,[2]; [9],Positive
same,"GABAAR PAM activity in FLIPR, in words",[2]; in the presence of GABA,increased fluorescence in the presence of GABA
picrotoxin,Phenoscore,"[1]; zebrafish, in vivo",0.03
same,Ave Norm FLIPR Score,[2]; [8],-9.76
same,"GABAAR PAM activity in FLIPR, in words",[2]; in the presence of GABA,PAM activity was not observed
same,pERK labeling (neuronal activity),[3]; in words,neuronal activity increased in the telencephalon but not in the hindbrain
